Reference: patent US9200269B2, “β-glucuronidase inhibitor” (priority 2007, dated 2015)

How the values were obtained:
[1] = molecular target: T1, β-glucuronidase Type VII-A derived from Escherichia coli (Escherichia coli, UniProt P05804); assay: Inhibition of β-glucuronidase activity (PNPG substrate, absorbance at 400 nm); assay type: biochemical; settings: 1.6 units/mL enzyme, 37° C., 2 hours, pH 6.8
T1 construct: purchased Sigma-Aldrich Corporation
Protocol: 100 μL of a 2 mM PNPG aqueous solution, 40 μL of a 0.5 M phosphate buffer (pH 6.8), 38 μL of ion exchanged water and 2 μL of a 10 or 1 wt % dipropylene glycol (DPG) solution of various compounds or plant extracts were mixed in a bottle γ-ray sterilized in advance, and subsequently 20 μL of a β-glucuronidase aqueous solution adjusted to 16 units/mL was added, in order to allow the enzyme to react in a thermostat bath at 37° C. for 2 hours. Further, in the case of some of compounds, in addition to the above steps, the same experiment was performed using a 0.1 wt % DPG solution as well. As a result, the concentrations of the test compounds and plant extracts in the reaction solution were adjusted to 0.1, 0.01 and 0.001 wt %, respectively. Further, a product prepared by adding DPG in place of the above-mentioned compounds and plant extracts was used as a control, and a product prepared by adding ion exchanged water in place of an enzyme solution was used as a blank for each sample and control, and the respective products were allowed to react for 2 hours in the same manner. It should be noted that the plant extract sample was used as a solvent extract.
The above-mentioned reaction solution was diluted with a 0.2 M glycine buffer (pH 10.4) and measured for its absorbance at a wavelength of 400 nm. The relative activity inhibition rate of a β-glucuronidase was determined by using the obtained measurement value in accordance with the following equation. Absorbance change of control=Absorbance of control−Absorbance of blank for each control Absorbance change of sample=Absorbance of sample−Absorbance of blank for each sample Activity inhibition rate (%)=[(Absorbance change of control−Absorbance change of sample)/Absorbance change of control]×100

[2] = molecular target: T2, β-glucuronidase (Escherichia coli, UniProt P05804); assay: Suppression of generation of urine odor in enzyme-added urine, sensory evaluation; settings: 0.01 wt %; human urine plus enzyme, 25° C., 2 hours; six panelists
T2 construct: purchased Sigma-Aldrich Corporation
T2 sequence (P05804 whole entry): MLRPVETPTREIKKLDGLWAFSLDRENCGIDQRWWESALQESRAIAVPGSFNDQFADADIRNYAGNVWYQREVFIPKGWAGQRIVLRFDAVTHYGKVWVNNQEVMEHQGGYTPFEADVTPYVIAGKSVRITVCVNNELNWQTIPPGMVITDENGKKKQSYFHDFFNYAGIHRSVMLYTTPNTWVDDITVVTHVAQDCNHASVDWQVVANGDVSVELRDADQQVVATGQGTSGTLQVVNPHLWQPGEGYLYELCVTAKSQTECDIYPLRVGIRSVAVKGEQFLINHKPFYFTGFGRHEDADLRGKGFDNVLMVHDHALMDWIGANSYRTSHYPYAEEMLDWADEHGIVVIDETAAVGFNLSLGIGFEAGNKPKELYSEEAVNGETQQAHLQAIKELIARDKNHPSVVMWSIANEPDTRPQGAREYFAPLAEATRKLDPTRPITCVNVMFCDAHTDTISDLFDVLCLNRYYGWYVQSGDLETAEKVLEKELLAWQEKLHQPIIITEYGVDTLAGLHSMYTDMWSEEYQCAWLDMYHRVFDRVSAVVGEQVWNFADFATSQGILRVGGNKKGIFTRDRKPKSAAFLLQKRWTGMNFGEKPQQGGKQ
Protocol: Sensory evaluation of odor was performed by six panelists, the evaluation was based on a six-level odor intensity indication method in which the odor intensity was indicated with an evaluation score of 0 to 5. In the evaluation score, “0” indicates no odor, “1” indicates odor which can be slightly perceived (detection threshold), “2” indicates odor which can be perceived to be urine odor but is weak (perception threshold), “3” indicates odor which can be easily perceived to be urine odor, “4” indicates strong urine odor, and “5” indicates extreme urine odor. The odor intensity was determined at an interval of 0.5.
360 μL of a human urine sample (a mixture of urine from five humans), which had been subjected to a microbe-removing operation with a 0.2-μm filter immediately after the collection, and […] of a 10 wt % 8-cyclohexadecen-1-one DPG solution were added to a bottle γ-ray sterilized in advance, and subsequently 40 μL of a β-glucuronidase aqueous solution adjusted to 20 units/mL was added and mixed. The mixture was incubated in a thermostat bath at 25° C. and allowed to react for 2 hours. The concentration of 8-cyclohexadecen-1-one in the reaction solution was 0.01 wt %. […]

T1 sequence (P05804 whole entry): as above

O=C1CCCCCCC=CCCCCCCC1 [8-Cyclohexadecen-1-one, 8-cyclohexadecen-1-one]
Inhibition rate (%) Concentration 0.001% ([1]; 0.001 wt % in reaction solution): 95.8% | inhibition at 0.01 wt % ([1]; 0.01 wt % in reaction solution, read-out: Inhibition rate (%) Concentration 0.01%): 99.9% | inhibition at 0.1 wt % ([1]; 0.1 wt % in reaction solution, read-out: Inhibition rate (%) Concentration 0.1%): 100% | Generation of urine odor, sensory evaluation (result in words, FIG. 5) [2]: sensuously suppressed the generation of urine odor
